Measurements from US8946474B2, “Polymorphic form of a calcimimetic compound” (LEO Pharma A/S, priority 2010, dated 2015).
In brackets after ≈: the same amount, converted by molar mass. Several values for one entry are separate records, joined by “and”; a condition that tells them apart may be missing. Equal values may be shown once.

Columns and labels:
Format in all cases: physicochemical
[1] = Aqueous solubility as a function of pH; details: for Solubility / solubility at 24 h: room temperature (25° C.), shaken 24 hours; for solubility at 24 h: 25 °C, thermodynamic from solid
Procedure: In addition to the characterizing analyses by XRPD, XRC, DSC, ATR-FTIR and SS NMR discussed hereinabove, the solubility of {4-[(1R,3S)-3-((R)-1-Naphthalen-1-yl-ethylamino)-cyclopentyl]-phenoxy}-acetic acid Form C and X has been determined as function of pH and in MeOH.
The aqueous solubility of Form C and Form X was determined as a function of pH at 25° C. in 0.1N HCl (pH 1.0) and in Sorensen phosphate buffers at pH 2.0, 4.0, 6.0 and 8.0. For each pH value two individual determinations were made. Form C or Form X was weighed out (11 mg for pH 1, 4 mg for pH 2-8) in scintillation vials and 4 ml 0.1N HCl or buffer was added. The vials were shaken for 24 hours at 25° C. After 24 hours it was checked that the vial still contained undissolved material. The suspensions were filtered through a 0.45 μm filter, which was first saturated with app. 0.5 ml filtrate. The resulting filtrates were diluted and analyzed by HPLC vs. a standard curve.

[2] = Stress stability test for solid state transformation; details: 60° C., 60° C./75% relative humidity and 80° C./75% relative humidity; 4 weeks
Procedure: Polymorph Form C, Form X and mixtures of the two polymorphic forms C+X have all been tested at different conditions of temperature and relative humidity for signs of solid state transformation. The stress stability test was carried out at three sets of conditions: 60° C., 60° C./75% relative humidity and 80° C./75% relative humidity, and samples were analyzed after 1, 2 and 4 weeks, i.e. after 7, 14 and 28 days.
One 1.8 ml amber screw top vial (27267-U, Supelco) containing between 50 and 100 mg {4-[(1R,3S)-3-((R)-1-Naphthalen-1-yl-ethylamino)-cyclopentyl]-phenoxy}-acetic acid was tested per individual set of conditions. The vials to be tested at 60° C. were closed with a PTFE lined black polypropylene solid cap (27416, Supelco) and placed in a thermostated heating cabinet. The vials to be tested at 60° C./75% relative humidity and 80° C./75% relative humidity were placed uncapped in a desiccator containing a saturated NaCl solution. The desiccator was subsequently placed in a thermostatted heating cabinet.
The samples were analyzed at 1, 2 and 4 weeks for • 1. Visual appearance • 2. HPLC assay and impurities • 3. Polymorph characterization

[3] = Thermo gravimetric analysis (TGA); details: TGA trail of Graph 4b (Form X), ±2° C.
Procedure: TGA experiments were conducted using a Perkin Elmer Pyris 1 TGA instrument. About 10-20 mg of sample was loaded into a ceramic pan for the measurements. The sample temperature was ramped from 25 to 350° C. at 10° C./min. Nitrogen was used as the purge gas at a flow rate of 40 mL/min.

Row | SMILES | Solubility ([1]; pH 1.0 (0.1N HCl)) [µg/mL] | Solubility ([1]; pH 2.0 (Sorensen phosphate buffer)) | Solubility ([1]; pH 4.0 (Sorensen phosphate buffer)) | Solubility ([1]; pH 6.0 (Sorensen phosphate buffer)) [µg/mL] | Solubility ([1]; pH 8.0 (Sorensen phosphate buffer)) [µg/mL] | 4 week stress stability test without any solid state transformation [2] | stable towards degradation at temperatures below [3] | solubility at 24 h ([1]; 0.1N HCl, pH 1, simulated gastric fluid, pH 1.0 (0.1N HCl)) [µg/mL] | solubility at 24 h ([1]; Sorensen phosphate buffer, pH 2, aqueous buffer, pH 2.0 (Sorensen phosphate buffer)) [µg/mL] | solubility at 24 h ([1]; Sorensen phosphate buffer, pH 4, aqueous buffer, pH 4.0 (Sorensen phosphate buffer)) [µg/mL] | solubility at 24 h ([1]; Sorensen phosphate buffer, pH 6, aqueous buffer, pH 6.0 (Sorensen phosphate buffer)) [µg/mL] | solubility at 24 h ([1]; Sorensen phosphate buffer, pH 8, aqueous buffer, pH 8.0 (Sorensen phosphate buffer)) [µg/mL] | solubility compared to Form C ([1]; room temperature)
1 | C[C@@H](N[C@H]1CC[C@@H](c2ccc(OCC(=O)O)cc2)C1)c1cccc2ccccc12 [Form C, {4-[(1R,3S)-3-((R)-1-Naphthalen-1-yl-ethylamino)-cyclopentyl]-phenoxy}-acetic acid] | 1225 (≈ 3150 µM) | 394 µg/mL and 329 µg/mL | 52 µg/mL and 53 µg/mL | 43 (≈ 110 µM) | 55 (≈ 141 µM) | passed |  |  |  |  |  |  | 
2 | C[C@@H](N[C@H]1CC[C@@H](c2ccc(OCC(=O)O)cc2)C1)c1cccc2ccccc12 [{4-[(1R,3S)-3-((R)-1-Naphthalen-1-yl-ethylamino)-cyclopentyl]-phenoxy}-acetic acid] |  |  |  |  |  | passed | below 255 °C |  |  |  |  |  | 
3 | C[C@@H](N[C@H]1CC[C@@H](c2ccc(OCC(=O)O)cc2)C1)c1cccc2ccccc12 [Form X, {4-[(1R,3S)-3-((R)-1-Naphthalen-1-yl-ethylamino)-cyclopentyl]-phenoxy}-acetic acid] |  |  |  |  |  | passed |  | 1240 (≈ 3190 µM) | 551 (≈ 1410 µM) | 86 (≈ 221 µM) | 78 (≈ 200 µM) | 80 (≈ 205 µM) | higher
